The source of these data is article PMC10223019, “Preclinical Evaluation of a PSMA-Targeting Homodimer with an Optimized Linker for Imaging of Prostate Cancer” (Molecules, 2023).

Series [1] deals with PSMA. On the set-up: method as in PMID 27279903. The settings on record: PSMA-binding ligand with different chelators; cited from earlier work.
In series [2] the target is PSMA. More on the design: method as in PMID 30097503. The settings on record: cited from earlier work.
Series [3] in a line: Stability in mouse serum, radio-HPLC. In kind it is in vitro ADME. The settings on record: 24 h post-incubation, 37 °C, indium-111 labeled, intact fraction. The method, then: [^111In]In-22 or [^111In]In-30 (~35 MBq, 70 µL) was mixed with 330 μL of mouse serum and incubated at 37 °C for up to 24 h. After 1, 4, and 24 h incubation, 50 μL of the mouse serum solution was added to a separate vial containing 50 µL of acetonitrile. The sample was centrifuged at 5000× g for 20 min. The supernatant was analyzed by radio-HPLC.

A short description of series [4]: Stability in phosphate-buffered saline (PBS), radio-HPLC. In kind it is physicochemical. The settings on record: 24 h post-incubation, 37 °C, indium-111 labeled, intact fraction. The method, then:
[^111In]In-22 or [^111In]In-30 (~10 MBq, 20 µL) was mixed with 80 μL of PBS (0.01 M, pH 7.4) and incubated at 37 °C for up to 24 h. A sample of the PBS solution was loaded directly onto the radio-HPLC at 1, 4, and 24 h post-incubation.

Series [5] has as its target T1, Recombinant human PSMA (rhPSMA) (Homo sapiens, UniProt Q04609).
T1 construct: purchased R&D systems, Abingdon, UK
Put plainly: NAALADase assay (competitive inhibition, Amplex Red glutamate readout). In kind it is biochemical. The settings on record: rhPSMA, substrate Ac-Asp-Glu, 1 h 37 °C. The method, then:
Recombinant human PSMA (rhPSMA; R&D systems, Abingdon, UK) was diluted in assay buffer (50 mM HEPES, 0.1 M NaCl, pH 7.5) to 0.4 μg/mL. The substrate Ac–Asp–Glu (40 μM) was mixed with the synthesized derivatives and with a reference (PSMA-617) at concentrations ranging from 10^−6 to 10^−13 M in a final volume of 12.5 μL assay buffer. The mixtures were combined with 12.5 μL of the rhPSMA solution and incubated for 1 h at 37 °C in 384-well black polystyrene microplates (ThermoFisher, Bleiswijk, The Netherlands). The amount of glutamate released was measured by incubating with 25 μL of a working solution of the Amplex Red glutamic acid kit (ThermoFisher, Bleiswijk, The Netherlands) at 37 °C for 30 min. Fluorescence was measured with a HIDEX Sense Optical System (Goedereede, The Netherlands) with excitation at 535 nm and emission at 590 nm. Data were normalized and analyzed using a one-site total binding regression with GraphPad Prism v9.0 (GraphPad Software, San Diego, CA, USA).

The nature of series [6]: Stability in aqueous solution (LC-MS). Format: physicochemical. The settings on record: water, room temperature. The method, then: Dimerization was performed by elongation of 16 with 3-tritylthiopropionic acid, and reaction with 3,6-dichlorotetrazine following a biphasic protocol after cleavage from the solid support. Finally, addition of the chelator DOTA-TCO 26 was performed via the inverse electron-demand Diels–Alder reaction (IEDDA) to yield the dimeric product 27. However, it was noticed that 27 was not stable in aqueous solution, with degradation observed by LC-MS 20 min after incubation in water at room temperature. […] We hypothesized that it could originate from intramolecular interaction between the sulfur and the carboxylic acid group of the aspartic acid. Therefore, we modified the design of the dimer to include a longer spacer between 16 and the tetrazine. We replaced the 3-mercaptopropionic acid with a 6-mercaptohexanoic acid spacer. The resulting compound 30 (Scheme 2), obtained after dimerization and IEDDA reaction, was radiolabeled with In-111 and obtained in high RCY (>99%) and RCP (92.3%). It was stable in aqueous media and in the radiolabeling conditions, but also in PBS and mouse serum (>90% intact [^111In]In-30 at 24 h; Figure S7).

“And” between values parts separate entries of the source, which are not always exact repeats. Equal entries are not always repeated.

T1 sequence (Q04609 whole entry): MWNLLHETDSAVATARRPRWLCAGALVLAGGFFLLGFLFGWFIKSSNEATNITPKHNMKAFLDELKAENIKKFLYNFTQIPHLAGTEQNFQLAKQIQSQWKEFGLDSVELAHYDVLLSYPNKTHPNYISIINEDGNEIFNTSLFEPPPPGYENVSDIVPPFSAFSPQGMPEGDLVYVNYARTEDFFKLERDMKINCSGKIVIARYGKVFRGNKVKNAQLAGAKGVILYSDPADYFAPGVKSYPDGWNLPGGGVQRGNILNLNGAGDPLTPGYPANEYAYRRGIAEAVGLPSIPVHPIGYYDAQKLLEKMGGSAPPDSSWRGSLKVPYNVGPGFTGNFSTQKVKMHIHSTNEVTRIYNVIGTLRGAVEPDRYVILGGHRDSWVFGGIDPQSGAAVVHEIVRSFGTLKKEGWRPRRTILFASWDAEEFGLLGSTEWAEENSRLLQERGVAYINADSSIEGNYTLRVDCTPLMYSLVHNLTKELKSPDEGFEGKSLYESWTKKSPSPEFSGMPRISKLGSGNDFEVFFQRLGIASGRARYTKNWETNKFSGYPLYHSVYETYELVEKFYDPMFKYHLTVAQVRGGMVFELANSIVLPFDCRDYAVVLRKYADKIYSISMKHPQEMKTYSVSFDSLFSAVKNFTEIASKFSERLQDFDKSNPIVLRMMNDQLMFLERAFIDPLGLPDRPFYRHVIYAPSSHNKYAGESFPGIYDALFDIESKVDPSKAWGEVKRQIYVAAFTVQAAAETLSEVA

Turning to `O=C(O)CCC(NC(=O)NC(CCCCNC(=O)C(Cc1ccc2ccccc2c1)NC(=O)C1CCC(CNC(=O)CCC(C(=O)O)N2CCN(CC(=O)O)CCN(CC(=O)O)CC2)CC1)C(=O)O)C(=O)O` (stereo not drawn) [NODAGA-conjugate], the Internalization rate in series [1] is recorded as 48.5 ± 16.4%.

On to `N[C@@H](CCC(=O)O)C(=O)[O-].[Na+]` [Monosodium glutamate], for which the Ki in series [2] is 900 nM.

In the case of `CC(C)CC(NC(=O)C(Cc1ccccc1)NC(=O)C(CC(=O)O)NC(=O)CCCCCSC1=NNC(SCCCCCC(=O)NC(CC(=O)O)C(=O)NC(Cc2ccccc2)C(=O)NC(CC(C)C)C(O)CC(=O)NCCCCCC(=O)NCCCCC(NC(=O)NC(CCC(=O)O)C(=O)O)C(=O)O)=C2CCC(OC(=O)NCCCNC(=O)CN3CCN(CC(=O)O)CCN(CC(=O)O)CCN(CC(=O)O)CC3)CCCC12)C(O)CC(=O)NCCCCCC(=O)NCCCCC(NC(=O)NC(CCC(=O)O)C(=O)O)C(=O)O` [Compound 30, [EuK(Ahx-Sta-L-Phe-Asp-SHx)]2-Tz-TCO-DOTA], in series [3], the “Stability in Mouse Serum (%)” value is greater than 90%. Further, in series [4], the “Stability in PBS (%)” value is recorded as greater than 90%. Further, the concentration for half-maximal inhibition (IC50) in series [5] was 1.05 nM and 1 to 1.6 nM. Also, in series [6], the “Stability in aqueous solution” value is reported as “stable”.

Usually Ki stands for a dissociation constant, usually derived from enzyme kinetics or from competition with a known ligand. For orientation: IC50 means the concentration at which inhibition is half-maximal.
